Test results: ChEMBL document CHEMBL5724914, “Linking interpersonal differences in gut microbiota composition and drug biotransformation activity” (2024)

Assays:
[1] = The drug is tested on Z-030 corresponding to mouse gut metagenome with ENA study accession number: PRJEB37062 and ENA sample accession number: ERS12561829 for biotransformation under anaerobic condition. The drug concentrations were measured over 9 timepoints collected between 0 and 24 hours of incubation by liquid-chromatography-coupled mass spectrometry (LC–MS); conditions: 2 µM
[2] = The drug is tested on Z-005 corresponding to metagenome with ENA study accession number: PRJEB37062 and ENA sample accession number: ERS12561805 for biotransformation under anaerobic condition. The drug concentrations were measured over 9 timepoints collected between 0 and 24 hours of incubation by liquid-chromatography-coupled mass spectrometry (LC–MS); conditions: 2 µM
[3] = human gut metagenome, 24 h, 2 µM
[4] = The drug is tested on WLS-039 corresponding to human gut metagenome with ENA study accession number: PRJEB37062 and ENA sample accession number: ERS12561746 for biotransformation under anaerobic condition. The drug concentrations were measured over 9 timepoints collected between 0 and 24 hours of incubation by liquid-chromatography-coupled mass spectrometry (LC–MS); conditions: 2 µM
[5] = human gut metagenome, 24 h, 2 µM; remark: listed apart in the source
[6] = The drug is tested on Z-007 corresponding to rat gut metagenome with ENA study accession number: PRJEB37062 and ENA sample accession number: ERS12561807 for biotransformation under anaerobic condition. The drug concentrations were measured over 9 timepoints collected between 0 and 24 hours of incubation by liquid-chromatography-coupled mass spectrometry (LC–MS); conditions: 2 µM
[7] = human gut metagenome, 24 h, 2 µM; remark: listed apart in the source
[8] = The drug is tested on Z-004 corresponding to metagenome with ENA study accession number: PRJEB37062 and ENA sample accession number: ERS12561804 for biotransformation under anaerobic condition. The drug concentrations were measured over 9 timepoints collected between 0 and 24 hours of incubation by liquid-chromatography-coupled mass spectrometry (LC–MS); conditions: 2 µM
[9] = human gut metagenome, 24 h, 2 µM; remark: listed apart in the source
[10] = The drug is tested on Z-017 corresponding to mouse gut metagenome with ENA study accession number: PRJEB37062 and ENA sample accession number: ERS12561816 for biotransformation under anaerobic condition. The drug concentrations were measured over 9 timepoints collected between 0 and 24 hours of incubation by liquid-chromatography-coupled mass spectrometry (LC–MS); conditions: 2 µM
[11] = The drug is tested on Z-028 corresponding to mouse gut metagenome with ENA study accession number: PRJEB37062 and ENA sample accession number: ERS12561827 for biotransformation under anaerobic condition. The drug concentrations were measured over 9 timepoints collected between 0 and 24 hours of incubation by liquid-chromatography-coupled mass spectrometry (LC–MS); conditions: 2 µM
[12] = human gut metagenome, 24 h, 2 µM; remark: listed apart in the source
[13] = human gut metagenome, 24 h, 2 µM; remark: listed apart in the source
[14] = The drug is tested on WLS-240 corresponding to human gut metagenome with ENA study accession number: PRJEB37062 and ENA sample accession number: ERS12561773 for biotransformation under anaerobic condition. The drug concentrations were measured over 9 timepoints collected between 0 and 24 hours of incubation by liquid-chromatography-coupled mass spectrometry (LC–MS); conditions: 2 µM
[15] = The drug is tested on Z-009 corresponding to pig gut metagenome with ENA study accession number: PRJEB37062 and ENA sample accession number: ERS12561809 for biotransformation under anaerobic condition. The drug concentrations were measured over 9 timepoints collected between 0 and 24 hours of incubation by liquid-chromatography-coupled mass spectrometry (LC–MS); conditions: 2 µM
[16] = The drug is tested on WLS-006 corresponding to human gut metagenome with ENA study accession number: PRJEB37062 and ENA sample accession number: ERS12561741 for biotransformation under anaerobic condition. The drug concentrations were measured over 9 timepoints collected between 0 and 24 hours of incubation by liquid-chromatography-coupled mass spectrometry (LC–MS); conditions: 2 µM
[17] = human gut metagenome, 24 h, 2 µM; remark: listed apart in the source
[18] = The drug is tested on Z-026 corresponding to metagenome with ENA study accession number: PRJEB37062 and ENA sample accession number: ERS12561825 for biotransformation under anaerobic condition. The drug concentrations were measured over 9 timepoints collected between 0 and 24 hours of incubation by liquid-chromatography-coupled mass spectrometry (LC–MS); conditions: 2 µM
[19] = human gut metagenome, 24 h, 2 µM; remark: listed apart in the source
[20] = human gut metagenome, 24 h, 2 µM; remark: listed apart in the source
Further: call rule not given here.

Structure (SMILES)	Bacterial Biotransformation [1]	Bacterial Biotransformation [2]	Bacterial Biotransformation [3]	Bacterial Biotransformation [4]	Bacterial Biotransformation [5]	Bacterial Biotransformation [6]	Bacterial Biotransformation [7]	Bacterial Biotransformation [8]	Bacterial Biotransformation [9]	Bacterial Biotransformation [10]	Bacterial Biotransformation [11]	Bacterial Biotransformation [12]	Bacterial Biotransformation [13]	Bacterial Biotransformation [14]	Bacterial Biotransformation [15]	Bacterial Biotransformation [16]	Bacterial Biotransformation [17]	Bacterial Biotransformation [18]	Bacterial Biotransformation [19]	Bacterial Biotransformation [20]
CCCCCNC(=N)N/N=C/c1c[nH]c2ccc(OC)cc12.O=C(O)/C=C\C(=O)O [TEGASEROD MALEATE]	Compound NOT metabolized	Compound NOT metabolized	Compound NOT metabolized	Compound metabolized	Compound NOT metabolized	Compound NOT metabolized	Compound NOT metabolized	Compound NOT metabolized	Compound NOT metabolized	Compound NOT metabolized	Compound NOT metabolized	Compound NOT metabolized	Compound NOT metabolized	Compound NOT metabolized	Compound metabolized	Compound NOT metabolized	Compound NOT metabolized	Compound NOT metabolized	Compound NOT metabolized	–
COc1cc2nc(N3CCN(C(=O)C4COc5ccccc5O4)CC3)nc(N)c2cc1OC.CS(=O)(=O)O (centres undefined) [DOXAZOSIN MESYLATE]	Compound NOT metabolized	Compound metabolized	–	Compound NOT metabolized	Compound NOT metabolized	Compound NOT metabolized	Compound metabolized	Compound NOT metabolized	Compound metabolized	Compound NOT metabolized	Compound NOT metabolized	Compound NOT metabolized	Compound metabolized	Compound metabolized	Compound NOT metabolized	Compound metabolized	Compound metabolized	Compound metabolized	Compound metabolized	Compound metabolized
COc1cc(C(=O)NCc2ccc(OCCN(C)C)cc2)cc(OC)c1OC [TRIMETHOBENZAMIDE]	Compound NOT metabolized	Compound NOT metabolized	–	Compound NOT metabolized	Compound NOT metabolized	Compound NOT metabolized	Compound NOT metabolized	Compound NOT metabolized	Compound NOT metabolized	Compound NOT metabolized	Compound NOT metabolized	Compound NOT metabolized	Compound NOT metabolized	Compound NOT metabolized	Compound metabolized	Compound NOT metabolized	Compound NOT metabolized	Compound NOT metabolized	Compound NOT metabolized	Compound NOT metabolized
CC(=O)Nc1ccc(OC(C)=O)cc1 [DIACETAMATE]	Compound metabolized	Compound metabolized	–	Compound metabolized	Compound metabolized	Compound metabolized	Compound metabolized	Compound metabolized	Compound metabolized	Compound metabolized	Compound metabolized	Compound metabolized	Compound metabolized	Compound metabolized	Compound metabolized	Compound metabolized	Compound metabolized	Compound metabolized	Compound metabolized	Compound metabolized
Cc1cc2c(s1)Nc1ccccc1N=C2N1CCN(C)CC1 [OLANZAPINE]	Compound NOT metabolized	Compound NOT metabolized	Compound metabolized	Compound NOT metabolized	Compound metabolized	Compound NOT metabolized	Compound NOT metabolized	Compound metabolized	Compound metabolized	Compound NOT metabolized	Compound NOT metabolized	–	Compound metabolized	Compound NOT metabolized	Compound NOT metabolized	Compound NOT metabolized	Compound NOT metabolized	Compound NOT metabolized	Compound metabolized	Compound metabolized
COc1ccc(Cc2nccc3cc(OC)c(OC)cc23)cc1OC [PAPAVERINE]	Compound NOT metabolized	Compound metabolized	Compound metabolized	Compound metabolized	Compound metabolized	Compound NOT metabolized	Compound NOT metabolized	Compound NOT metabolized	Compound metabolized	Compound NOT metabolized	Compound NOT metabolized	Compound NOT metabolized	Compound metabolized	–	Compound metabolized	Compound NOT metabolized	Compound metabolized	Compound NOT metabolized	Compound metabolized	Compound metabolized
